# pKi: −log10 of the molar value.
# Legend:
# aged-impaired (AI) rats [1] = assay: Morris water maze behavioral task; assay type: in vivo, rat; settings: 100 μg ICV
# Source text: Another cognitive test that may be used to assess the effects of a test compound on the cognitive impairment of a CNS disorder model animal is the Morris water maze. A water maze is a pool surrounded with a novel set of patterns relative to the maze. […] The subject is trained to locate a submerged escape platform hidden underneath the surface of the pool. During the training trial, a subject is released in the maze (pool) from random starting positions around the perimeter of the pool. The starting position varies from trial to trial. […] After a delay period following the last training trial, a retention test in the absence of the escape platform is given to assess spatial memory. The subject's level of preference for the location of the (now absent) escape platform, as measured by, e.g., the time spent in that location or the number of crossings of that location made by the mouse, indicates better spatial memory, i.e., treatment of cognitive impairment. The preference for the location of the escape platform under different treatment conditions, can then be compared for efficacy of the test compound in treating cognitive impairment associated with CNS disorders.
# The effects of 6,6 dimethyl-3-(3-hydroxypropyl)thio-1-(thiazol-2-yl)-6,7-dihydro-2-benzothiophen-4(5H)-one on the in vivo spatial memory retention of aged-impaired (AI) rats were assessed in a Morris water maze behavioral task. A water maze is a pool surrounded with a novel set of patterns relative to the maze.
# Cognitively impaired aged rats were implanted unilaterally with a cannula into the lateral ventricle. Stereotaxic coordinates were 1.0 mm posterior to bregma, 1.5 mm lateral to midline, and 3.5 mm ventral to the skull surface. After about a week of recovery, the rats were pre-trained in a water maze for 2 days (6 trials per day) to locate a submerged escape platform hidden underneath the surface of the pool, in which the escape platform location varied from day to day. No intracerebroventricular (ICV) infusion was given during pre-training.
# After pre-training, rats received ICV infusion of either 100 μg 6,6 dimethyl-3-(3-hydroxypropyl)thio-1-(thiazol-2-yl)-6,7-dihydro-2-benzothiophen-4(5H)-one (n=6) in 5 μl DMSO or vehicle DMSO (n=5) 40 min prior to water maze training and testing. Training consisted of 8 trials per day for 2 days where the hidden escape platform remained in the same location. Rats were given 60 seconds to locate the platform with a 60 seconds inter-trial interval. The rats were given a probe test (120 seconds) 24 hr. after the end of training where the escape platform was removed. During the training, there were 4 blocks, where each block had 4 training trials.
# During a test trial 24 hr. after training, the escape platform was removed. […]
# α5β3γ2 GABAA receptors = α5β3γ2 GABAA receptors (Homo sapiens, UniProt P18507+P31644); assay: [3H]Ro15-1788 binding, membranes of Ltk cells stably expressing α5β3γ2 GABAA receptors; settings: ranges; inhibition of [3H]Ro15-1788 binding
# Sequence of α5β3γ2 GABAA receptors (P31644 32-462): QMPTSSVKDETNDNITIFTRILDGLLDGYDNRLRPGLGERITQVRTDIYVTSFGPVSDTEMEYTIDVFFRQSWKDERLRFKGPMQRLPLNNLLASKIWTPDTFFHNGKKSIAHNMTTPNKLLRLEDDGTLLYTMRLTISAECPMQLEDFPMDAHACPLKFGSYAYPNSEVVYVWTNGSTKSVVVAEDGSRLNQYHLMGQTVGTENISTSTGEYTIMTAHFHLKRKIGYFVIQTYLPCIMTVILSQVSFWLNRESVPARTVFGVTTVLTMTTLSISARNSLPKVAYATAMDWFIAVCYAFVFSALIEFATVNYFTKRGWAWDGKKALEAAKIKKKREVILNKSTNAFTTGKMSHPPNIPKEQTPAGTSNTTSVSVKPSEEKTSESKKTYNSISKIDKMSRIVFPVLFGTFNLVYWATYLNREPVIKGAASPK
# Sequence of α5β3γ2 GABAA receptors (P28472 26-473 partner): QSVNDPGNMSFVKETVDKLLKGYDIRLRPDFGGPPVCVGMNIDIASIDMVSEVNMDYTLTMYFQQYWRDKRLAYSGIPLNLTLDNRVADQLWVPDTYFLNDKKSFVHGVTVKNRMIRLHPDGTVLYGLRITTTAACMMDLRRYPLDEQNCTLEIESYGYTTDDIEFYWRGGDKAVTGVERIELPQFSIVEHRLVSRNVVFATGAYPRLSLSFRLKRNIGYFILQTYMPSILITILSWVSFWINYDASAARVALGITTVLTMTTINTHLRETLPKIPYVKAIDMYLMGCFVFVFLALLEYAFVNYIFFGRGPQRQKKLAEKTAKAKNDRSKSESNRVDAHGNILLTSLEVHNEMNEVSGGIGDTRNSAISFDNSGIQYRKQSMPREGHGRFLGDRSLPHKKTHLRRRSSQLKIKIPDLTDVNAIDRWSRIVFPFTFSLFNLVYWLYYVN
# Sequence of α5β3γ2 GABAA receptors (P18507 40-475): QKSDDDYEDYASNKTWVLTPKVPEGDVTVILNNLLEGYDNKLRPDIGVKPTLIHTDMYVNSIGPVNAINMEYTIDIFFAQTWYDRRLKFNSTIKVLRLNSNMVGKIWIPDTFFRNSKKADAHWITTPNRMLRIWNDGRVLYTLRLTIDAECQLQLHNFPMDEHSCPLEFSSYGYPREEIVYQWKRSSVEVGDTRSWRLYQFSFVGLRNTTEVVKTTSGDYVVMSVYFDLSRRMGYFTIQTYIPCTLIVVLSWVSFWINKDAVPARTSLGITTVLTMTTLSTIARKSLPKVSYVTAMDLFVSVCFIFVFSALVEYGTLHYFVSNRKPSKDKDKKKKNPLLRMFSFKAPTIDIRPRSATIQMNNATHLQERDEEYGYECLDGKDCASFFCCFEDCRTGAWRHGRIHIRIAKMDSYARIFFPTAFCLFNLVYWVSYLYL
# GABAA receptors (α5β2γ2) = target: T1, GABAA receptors (α5β2γ2) (Homo sapiens, UniProt P18507+P31644); assay: Positive allosteric modulator activity: potentiation of EC20 GABA current in oocytes; assay type: cell-based; settings: read-out: GABA α5 Functional Data (potentiation of EC20 GABA); @ 100 nM; ranges
# T1 construct: expressed in transfected cells
# T1 sequence (P31644 32-462): as the sequence (P31644 32-462) above
# T1 sequence (P47870 25-512, further chain): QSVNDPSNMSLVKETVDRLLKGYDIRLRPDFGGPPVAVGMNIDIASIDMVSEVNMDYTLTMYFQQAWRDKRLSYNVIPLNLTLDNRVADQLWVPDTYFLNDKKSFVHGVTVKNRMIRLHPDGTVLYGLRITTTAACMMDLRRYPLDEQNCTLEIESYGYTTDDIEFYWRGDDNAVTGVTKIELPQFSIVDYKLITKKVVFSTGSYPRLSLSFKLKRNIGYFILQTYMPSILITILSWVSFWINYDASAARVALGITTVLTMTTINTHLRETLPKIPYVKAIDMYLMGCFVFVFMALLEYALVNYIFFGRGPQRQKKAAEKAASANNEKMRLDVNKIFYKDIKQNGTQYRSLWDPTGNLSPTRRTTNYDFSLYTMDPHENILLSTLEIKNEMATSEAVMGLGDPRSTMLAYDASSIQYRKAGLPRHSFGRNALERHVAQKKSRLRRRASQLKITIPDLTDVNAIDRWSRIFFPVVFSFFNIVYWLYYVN
# T1 sequence (P18507 40-475): as the sequence (P18507 40-475) above
# Outline: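 Oocytes were injected with 1 ng cDNA (α5:β2:γ2 1:1:10 by weight) and recorded on day 2 (day 3 with 20% less cDNA) by two-electrode clamp (3M KCl electrodes, 0.5-3 megaohms) under MBS superfusion at 3 mL/min. Potentiation (%) is Itest divided by IGABA. Each oocyte received one concentration only.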
# GABAAα5 receptor = target: T2, GABAAα5 receptor (Rattus norvegicus, UniProt P18508+P19969); assay: in vivo; assay type: in vivo, Long Evans rats; settings: i.v.; for effect on binding of Ro 15-4513 in hippocampus / effect on binding/levels of Ro 15-4513 in cerebellum: 0.01-10 mg/kg
# T2 construct: occupancy in the hippocampus (a region of high GABAAα5 receptor density); from tissue; host or cells: rat brain in vivo: hippocampus versus cerebellum
# T2 sequence (P19969 32-464): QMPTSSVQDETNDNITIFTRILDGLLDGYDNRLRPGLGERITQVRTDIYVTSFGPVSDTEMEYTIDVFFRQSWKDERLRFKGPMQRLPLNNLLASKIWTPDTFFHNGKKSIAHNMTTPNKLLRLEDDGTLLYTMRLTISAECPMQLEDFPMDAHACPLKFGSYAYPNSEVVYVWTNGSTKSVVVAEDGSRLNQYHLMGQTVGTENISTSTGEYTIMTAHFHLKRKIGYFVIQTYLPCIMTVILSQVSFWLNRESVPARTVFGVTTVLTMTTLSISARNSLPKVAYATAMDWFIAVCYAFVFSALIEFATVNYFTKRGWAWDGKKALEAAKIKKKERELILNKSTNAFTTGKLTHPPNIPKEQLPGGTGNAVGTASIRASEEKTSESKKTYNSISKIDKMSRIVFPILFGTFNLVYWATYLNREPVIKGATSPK
# T2 sequence (P18508 39-466): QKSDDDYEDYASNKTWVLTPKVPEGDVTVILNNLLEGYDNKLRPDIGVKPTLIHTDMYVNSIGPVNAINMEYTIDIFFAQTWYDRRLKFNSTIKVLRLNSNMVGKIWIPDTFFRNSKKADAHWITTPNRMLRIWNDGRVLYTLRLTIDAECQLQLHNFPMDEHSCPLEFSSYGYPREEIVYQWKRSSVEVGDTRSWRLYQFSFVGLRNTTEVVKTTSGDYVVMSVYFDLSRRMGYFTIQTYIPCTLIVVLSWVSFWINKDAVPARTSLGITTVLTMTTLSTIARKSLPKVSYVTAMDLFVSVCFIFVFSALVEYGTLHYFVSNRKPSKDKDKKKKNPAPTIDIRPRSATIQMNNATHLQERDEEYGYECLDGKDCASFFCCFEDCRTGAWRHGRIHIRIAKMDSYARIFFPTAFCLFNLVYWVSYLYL
# Source text: Food and water were available ad libitum.
# MAM-treated rats = settings: cited from earlier work
# aged-impaired (AI) rats [2] = assay: Radial Arm Maze (RAM) behavioral task, spatial memory retention; assay type: in vivo, rat; settings: four-hour delay RAM
# Source text: A Radial Arm Maze (RAM) behavioral task is one example of a cognitive test, specifically testing spacial memory (Chappell et al. Neuropharmacology 37: 481-487, 1998). The RAM apparatus consists of, e.g., eight equidistantly spaced arms. A maze arm projects from each facet of a center platform. A food well is located at the distal end of each arm. Food is used as a reward. Blocks can be positioned to prevent entry to any arm. Numerous extra maze cues surrounding the apparatus may also be provided. After habituation and training phases, spatial memory of the subjects may be tested in the RAM under control or test compound-treated conditions. As a part of the test, subjects are pretreated before trials with a vehicle control or one of a range of dosages of the test compound. At the beginning of each trial, a subset of the arms of the eight-arm maze is blocked. Subjects are allowed to obtain food on the unblocked arms to which access is permitted during this initial “information phase” of the trial. Subjects are then removed from the maze for a delay period, e.g., a 60 second delay, a 15 minute delay, a one-hour delay, a two-hour delay, a six hour delay, a 24 hour delay, or longer) between the information phase and the subsequent “retention test,” during which the barriers on the maze are removed, thus allowing access to all eight arms. […] The identity and configuration of the blocked arms vary across trials. The number of “errors” the subjects make during the retention test phase is tracked. An error occurs in the trial if the subjects entered an arm from which food had already been retrieved in the pre-delay component of the trial, or if it re-visits an arm in the post-delay session that had already been visited. A fewer number of errors would indicate better spatial memory. The number of errors made by the test subject, under various test compound treatment regimes, can then be compared for efficacy of the test compound in treating cognitive impairment associated with CNS disorders.
# The effects of methyl 3,5-diphenylpyridazine-4-carboxylate on the in vivo spatial memory retention of aged-impaired (AI) rats were assessed in a Radial Arm Maze (RAM) behavioral task using vehicle control and four different dosage levels of methyl 3,5-diphenylpyridazine-4-carboxylate (0.1 mg/kg, 0.3 mg/kg, 1 mg/kg and 3 mg/kg, ip). RAM behavioral tasks were performed on eight AI rats. All five treatment conditions (vehicle and four dosage levels) were tested on all eight rats.
# The RAM apparatus used consisted of eight equidistantly-spaced arms. An elevated maze arm (7 cm width×75 cm length) projected from each facet of an octagonal center platform (30 cm diameter, 51.5 cm height). Clear side walls on the arms were 10 cm high and were angled at 65° to form a trough. […]
# [3] = probe test 24 hr. after training
Compound,pKi (α5β3γ2 GABAA receptors),activation at 0.1 µM (GABAA receptors (α5β2γ2)) [%],further results
"CC1(C)CC(=O)c2c(SCCCO)sc(-c3nccs3)c2C1 [6,6 dimethyl-3-(3-hydroxypropyl)thio-1-(thiazol-2-yl)-6,7-dihydro-2-benzothiophen-4(5H)-one]",,,time to find the escape platform (aged-impaired (AI) rats [1]; block 1 of training): about 24 seconds; time to find the escape platform (aged-impaired (AI) rats [1]; block 4 of training): about 9.6 seconds; number of crossings of target annulus vs opposite annulus (aged-impaired (AI) rats [1]; [3]): crossed the “target annulus” more often; time in target annulus vs opposite annulus (aged-impaired (AI) rats [1]; [3]): spent significantly more time in the target annulus
COCc1nnc2n1Cc1c(C#Cc3ccn4ccnc4c3)ncn1-c1ccc(Cl)cc1-2 [Compound 679],> 7.00,> 50,
COCc1nnc2n1Cc1c(C#Cc3cnc4occc4c3)ncn1-c1ccc(Cl)cc1-2 [Compound 680],> 7.00,20 to 50,
COCc1nnc2n1Cc1c(C#Cc3cnc(C)[nH]3)ncn1-c1ccc(Cl)cc1-2 [Compound 681],> 7.00,> 50,
COCc1nnc2n1Cc1c(C#Cc3ccnn3C)ncn1-c1ccc(Cl)cc1-2 [Compound 682],> 7.00,> 50,
COCc1nnc2n1Cc1c(C#Cc3ccn(C)n3)ncn1-c1ccc(Cl)cc1-2 [Compound 683],> 7.00,> 50,
COCc1nnc2n1Cc1c(C#Cc3cnc(OC)c(C)c3)ncn1-c1ccc(Cl)cc1-2 [Compound 698],> 7.00,5 to 20,
FC(F)(F)c1ccc(C#Cc2ncn3c2Cc2cnnn2-c2cc(Cl)ccc2-3)nc1 [Compound 701],> 7.00,5 to 20,
COCc1nnc2n1Cc1c(C#Cc3ccc(OC)nc3)ncn1-c1ccc(OC)cc1-2 [Compound 703],> 7.00,20 to 50,
COCc1nnc2n1Cc1c(C#Cc3ccc(OC)nn3)ncn1-c1ccc(Cl)cc1-2 [Compound 707],> 7.00,> 50,
CCOc1ccc(C#Cc2ncn3c2Cn2c(COC)nnc2-c2cc(OC)ccc2-3)cn1 [Compound 710],> 7.00,5 to 20,
COCc1nnc2n1Cc1c(C#Cc3ccc(OC(C)C)nc3)ncn1-c1ccc(OC)cc1-2 [Compound 711],> 7.00,5 to 20,
COCc1nnc2n1Cc1c(C#Cc3ccc(OC)nn3)ncn1-c1ccc(OC)cc1-2 [Compound 712],> 7.00,> 50,
COCc1nnc2n1Cc1c(C#Cc3ccc4[nH]ccc4c3)ncn1-c1ccc(OC)cc1-2 [Compound 715],> 7.00,20 to 50,
COCc1nnc2n1Cc1c(C#Cc3ccc(C(C)C)cc3)ncn1-c1ccc(OC)cc1-2 [Compound 716],> 7.00,5 to 20,
COCc1nnc2n1Cc1c(C3=NC[C@@H](c4ccc(Cl)cc4)O3)ncn1-c1ccc(Cl)cc1-2 [Compound 717],> 7.00,> 50,
COCc1nnc2n1Cc1c(C3=NC[C@H](c4ccc(Cl)cc4)O3)ncn1-c1ccc(Cl)cc1-2 [Compound 718],> 7.00,20 to 50,
"CCOC(=O)c1ncn2c1Cn1c(C)nnc1-c1cc(OC)ccc1-2 [Ethyl 3-methoxy-7-methyl-9H-benzo[f]imidazo[1,5-a][1,2,4]tri]",,,effect on binding of Ro 15-4513 in hippocampus (GABAAα5 receptor): blocked the binding of Ro154513 in the hippocampus; effect on binding/levels of Ro 15-4513 in cerebellum (GABAAα5 receptor): did not affect binding of Ro15413 in the cerebellum
C#Cc1ccc2c(c1)C(c1ccccc1F)=N[C@H](C)c1c(C(=O)OCC)ncn1-2 [SH-053-2′F—R—CH3],,,"number of spontaneously active DA neurons in the ventral tegmental area (VTA) (MAM-treated rats; MAM rats, systemic and infused into ventral HPC): reduces the number of spontaneously active DA neurons in the ventral tegmental area (VTA) of MAM rats to levels observed in saline-treated rats; locomotor response to amphetamine (MAM-treated rats; MAM-treated rats): reduced; cortical-evoked responses of HPC neurons (MAM-treated rats; saline-treated and MAM-treated animals): diminished cortical-evoked responses"
"CCOC(=O)c1ncn2c1Cn1c(C)nnc1-c1cc(OC)ccc1-2 [ethyl 3-methoxy-7-methyl-9H-benzo[f]imidazo[1,5-a][1,2,4]tri]",,,"memory performance relative to vehicle control treatment (aged-impaired (AI) rats [2]; 3 mg/kg, t(7)=4.13, p=0.004, or t(7)=3.08, p=0.018): significantly improved memory performance; memory performance relative to vehicle control treatment (aged-impaired (AI) rats [2]; 10 mg/kg, t(7)=2.82, p=0.026): significantly improved memory performance; effect on binding of Ro 15-4513 in hippocampus (GABAAα5 receptor): reduced Ro 15-4513 binding in hippocampus; effect on binding/levels of Ro 15-4513 in cerebellum (GABAAα5 receptor): without affecting cerebellum levels of Ro 15-4513; GABAA α5 receptor occupancy (GABAAα5 receptor; 10 mg/kg): > 90%"
Ro 15-4513,,,"levels of Ro 15-4513 in cerebellum (GABAAα5 receptor; tracer 1 μg/kg, after vehicle): 0.36 ± 0.02 ng/g; levels of Ro 15-4513 in hippocampus (GABAAα5 receptor; tracer 1 μg/kg, after vehicle): 1.93 ± 0.05 ng/g; levels of Ro 15-4513 in hippocampus compared with cerebellum (GABAAα5 receptor; tracer 1 μg/kg, after vehicle): > 5 fold"
